US11091478B2 (Fochon Pharmaceuticals, Ltd., priority 2017, dated 2021)
pIC50: −log10 of the molar value.

Columns and labels:
[1] = system: DOHH2 cells; assay: Cell proliferation assay (MTS), DOHH2 cells, 120 h; assay type: cell-based; conditions: Homo sapiens, DOHH-2, 120 h
Method in brief: (§1)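 Cells in RPMI-1640 with 10% FBS were seeded at 5000/well, left overnight at 37° C., 5% CO2, then exposed to compound at 10000 down to 1.5 nM (nine concentrations) for 72 h (RS4;11) or 120 h (DOHH2). Viability was read by MTS, 2 h, absorbance at 490/650 nm; IC50 calculated.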

[2] = system: RS4;11 cells; assay: Cell proliferation assay (MTS), RS4;11 cells, 72 h; assay type: cell-based; conditions: Homo sapiens, RS4-11, 72 h
Method in brief: as §1

| Structure (SMILES) | pIC50 [1] | pIC50 [2] |
| --- | --- | --- |
| CN1CCN(CC[C@H]2COc3cc(S(=O)(=O)NC(=O)c4ccc(N5CCN(CC6=C(c7ccc(Cl)cc7)CC(C)(C)CC6)CC5)cc4Oc4cnc5[nH]ccc5c4)cc([N+](=O)[O-])c3N2)CC1 [Example 2-9, (S)-2-((1H-pyrrolo[2,3-b]pyridin-5-yl)oxy)-4-(4-((4′-chloro-5,5-dimethyl-3,4,5,6-tetra-hydro-[1,1′-biphenyl]-2-yl)methyl)piperazin-1-yl)-N-((3-(2-(4-methylpiperazin-1-yl)eth-yl)-5-nitro-3,4-dihydro-2H-benzo[b][1,4]oxazin-7-yl)sulfonyl)benzamide] | 7.48 | 8.00 |
| CC1(C)CCC(CN2CCN(c3ccc(C(=O)NS(=O)(=O)c4cc5c(c([N+](=O)[O-])c4)N[C@@H](CCN4CCOCC4)CO5)c(Oc4cnc5[nH]ccc5c4)c3)CC2)=C(c2ccc(Cl)cc2)C1 [Example 2-10, (S)-2-((1H-pyrrolo[2,3-b]pyridin-5-yl)oxy)-4-(4-((4′-chloro-5,5-dimethyl-3,4,5,6-tetra-hydro-[1,1′-biphenyl]-2-yl)methyl)piperazin-1-yl)-N-((3-(2-morpholinoethyl)-5-nitro-3,4-dihydro-2H-benzo[b][1,4]oxazin-7-yl)sulfonyl)benzamide] | 7.55 | 8.05 |
| CC1(C)CCC(CN2CCN(c3ccc(C(=O)NS(=O)(=O)c4cc5c(c([N+](=O)[O-])c4)N[C@@H](CCN4CCC(C)(O)CC4)CO5)c(Oc4cnc5[nH]ccc5c4)c3)CC2)=C(c2ccc(Cl)cc2)C1 [Example 2-11, (S)-2-((1H-pyrrolo[2,3-b]pyridin-5-yl)oxy)-4-(4-((4′-chloro-5,5-dimethyl-3,4,5,6-tetra-hydro-[1,1′-biphenyl]-2-yl)methyl)piperazin-1-yl)-N-((3-(2-(4-hydroxy-4-methylpiper-idin-1-yl)ethyl)-5-nitro-3,4-dihydro-2H-benzo[b][1,4]oxazin-7-yl)sulfonyl)benzamide] | 7.28 | 7.92 |
| CN(C)CC[C@H]1COc2cc(S(=O)(=O)NC(=O)c3ccc(N4CCN(CC5=C(c6ccc(Cl)cc6)CC(C)(C)CC5)CC4)cc3Oc3cnc4[nH]ccc4c3)cc([N+](=O)[O-])c2N1 [Example 2-12, (S)-2-((1H-pyrrolo[2,3-b]pyridin-5-yl)oxy)-4-(4-((4′-chloro-5,5-dimethyl-3,4,5,6-tetra-hydro-[1,1′-biphenyl]-2-yl)methyl)piperazin-1-yl)-N-((3-(2-(dimethylamino)ethyl)-5-nitro-3,4-dihydro-2H-benzo[b][1,4]oxazin-7-yl)sulfonyl)benzamide] | 7.72 | 9.00 |
| CC1(C)CCC(CN2CCN(c3ccc(C(=O)NS(=O)(=O)c4cc5c(c([N+](=O)[O-])c4)N[C@@H](CCO)CO5)c(Oc4cnc5[nH]ccc5c4)c3)CC2)=C(c2ccc(Cl)cc2)C1 [Example 2-13, (S)-2-((1H-pyrrolo[2,3-b]pyridin-5-yl)oxy)-4-(4-((4′-chloro-5,5-dimethyl-3,4,5,6-tetra-hydro-[1,1′-biphenyl]-2-yl)methyl)piperazin-1-yl)-N-((3-(2-hydroxyethyl)-5-nitro-3,4-dihydro-2H-benzo[b][1,4]oxazin-7-yl)sulfonyl)benzamide] | 7.48 | 8.05 |
| CN1CCN(CC[C@@H]2COc3cc(S(=O)(=O)NC(=O)c4ccc(N5CCN(CC6=C(c7ccc(Cl)cc7)CC(C)(C)CC6)CC5)cc4Oc4cnc5[nH]ccc5c4)cc([N+](=O)[O-])c3N2)CC1 [Example 2-14, (R)-2-((1H-pyrrolo[2,3-b]pyridin-5-yl)oxy)-4-(4-((4′-chloro-5,5-dimethyl-3,4,5,6-tetra-hydro-[1,1′-biphenyl]-2-yl)methyl)piperazin-1-yl)-N-((3-(2-(4-methylpiperazin-1-yl)eth-yl)-5-nitro-3,4-dihydro-2H-benzo[b][1,4]oxazin-7-yl)sulfonyl)benzamide] | 7.82 | 8.40 |
| CC1(C)CCC(CN2CCN(c3ccc(C(=O)NS(=O)(=O)c4cc5c(c([N+](=O)[O-])c4)N[C@H](CCN4CCC(C)(O)CC4)CO5)c(Oc4cnc5[nH]ccc5c4)c3)CC2)=C(c2ccc(Cl)cc2)C1 [Example 2-15, (R)-2-((1H-pyrrolo[2,3-b]pyridin-5-yl)oxy)-4-(4-((4′-chloro-5,5-dimethyl-3,4,5,6-tetra-hydro-[1,1′-biphenyl]-2-yl)methyl)piperazin-1-yl)-N-((3-(2-(4-hydroxy-4-methylpiper-idin-1-yl)ethyl)-5-nitro-3,4-dihydro-2H-benzo[b][1,4]oxazin-7-yl)sulfonyl)benzamide] | 7.30 | 7.70 |
| CN(C)CC[C@@H]1COc2cc(S(=O)(=O)NC(=O)c3ccc(N4CCN(CC5=C(c6ccc(Cl)cc6)CC(C)(C)CC5)CC4)cc3Oc3cnc4[nH]ccc4c3)cc([N+](=O)[O-])c2N1 [Example 2-16, (R)-2-((1H-pyrrolo[2,3-b]pyridin-5-yl)oxy)-4-(4-((4′-chloro-5,5-dimethyl-3,4,5,6-tetra-hydro-[1,1′-biphenyl]-2-yl)methyl)piperazin-1-yl)-N-((3-(2-(dimethylamino)ethyl)-5-nitro-3,4-dihydro-2H-benzo[b][1,4]oxazin-7-yl)sulfonyl)benzamide] | 7.47 | 8.40 |
| CC1(C)CCC(CN2CCN(c3ccc(C(=O)NS(=O)(=O)c4cc5c(c([N+](=O)[O-])c4)N[C@H](CCO)CO5)c(Oc4cnc5[nH]ccc5c4)c3)CC2)=C(c2ccc(Cl)cc2)C1 [Example 2-17, (R)-2-((1H-pyrrolo[2,3-b]pyridin-5-yl)oxy)-4-(4-((4′-chloro-5,5-dimethyl-3,4,5,6-tetra-hydro-[1,1′-biphenyl]-2-yl)methyl)piperazin-1-yl)-N-((3-(2-hydroxyethyl)-5-nitro-3,4-dihydro-2H-benzo[b][1,4]oxazin-7-yl)sulfo-nyl)benzamide] | 7.70 | 8.10 |
| CC1(C)CCC(CN2CCN(c3ccc(C(=O)NS(=O)(=O)c4cc5c(c([N+](=O)[O-])c4)N[C@@H](CN4CCOCC4)CO5)c(Oc4cnc5[nH]ccc5c4)c3)CC2)=C(c2ccc(Cl)cc2)C1 [Example 2-18, (S)-2-((1H-pyrrolo[2,3-b]pyridin-5-yl)oxy)-4-(4-((4′-chloro-5,5-dimethyl-3,4,5,6-tetra-hydro-[1,1′-biphenyl]-2-yl)methyl)piperazin-1-yl)-N-((3-(morpholinomethyl)-5-nitro-3,4-dihydro-2H-benzo[b][1,4]oxazin-7-yl)sulfonyl)benzamide] | 8.05 | 8.40 |
| CC1(C)CCC(CN2CCN(c3ccc(C(=O)NS(=O)(=O)c4cc5c(c([N+](=O)[O-])c4)N[C@@H](CN4CCC(C)(O)CC4)CO5)c(Oc4cnc5[nH]ccc5c4)c3)CC2)=C(c2ccc(Cl)cc2)C1 [Example 2-19, (S)-2-((1H-pyrrolo[2,3-b]pyridin-5-yl)oxy)-4-(4-((4′-chloro-5,5-dimethyl-3,4,5,6-tetra-hydro-[1,1′-biphenyl]-2-yl)methyl)piperazin-1-yl)-N-((3-((4-hydroxy-4-methylpiperidin-1-yl)methyl)-5-nitro-3,4-dihydro-2H-ben-zo[b][1,4]oxazin-7-yl)sulfonyl)benzamide] | 7.15 | 7.44 |
| CN(C)C[C@H]1COc2cc(S(=O)(=O)NC(=O)c3ccc(N4CCN(CC5=C(c6ccc(Cl)cc6)CC(C)(C)CC5)CC4)cc3Oc3cnc4[nH]ccc4c3)cc([N+](=O)[O-])c2N1 [Example 2-20, (S)-2-((1H-pyrrolo[2,3-b]pyridin-5-yl)oxy)-4-(4-((4′-chloro-5,5-dimethyl-3,4,5,6-tetra-hydro-[1,1′-biphenyl]-2-yl)methyl)piperazin-1-yl)-N-((3-((dimethylamino)methyl)-5-nitro-3,4-dihydro-2H-benzo[b][1,4]oxazin-7-yl)sulfonyl)benzamide] | 7.23 | 7.54 |
| CC1(C)CCC(CN2CCN(c3ccc(C(=O)NS(=O)(=O)c4cc5c(c([N+](=O)[O-])c4)N[C@H](CN4CC(C)(O)C4)CO5)c(Oc4cnc5[nH]ccc5c4)c3)CC2)=C(c2ccc(Cl)cc2)C1 [Example 2-21, (R)-2-((1H-pyrrolo[2,3-b]pyridin-5-yl)oxy)-4-(4-((4′-chloro-5,5-dimethyl-3,4,5,6-tetra-hydro-[1,1′-biphenyl]-2-yl)methyl)piperazin-1-yl)-N-((3-((3-hydroxy-3-methylazetidin-1-yl)methyl)-5-nitro-3,4-dihydro-2H-ben-zo[b][1,4]oxazin-7-yl)sulfonyl)benzamide] | 8.10 | 9.00 |
| C[C@@H]1CN(C[C@@H]2COc3cc(S(=O)(=O)NC(=O)c4ccc(N5CCN(CC6=C(c7ccc(Cl)cc7)CC(C)(C)CC6)CC5)cc4Oc4cnc5[nH]ccc5c4)cc([N+](=O)[O-])c3N2)CCN1C1COC1 [Example 2-22, 2-((1H-pyrrolo[2,3-b]pyridin-5-yl)oxy)-4-(4-((4′-chloro-5,5-dimethyl-3,4,5,6-tetra-hydro-[1,1′-biphenyl]-2-yl)methyl)piperazin-1-yl)-N-(((R)-3-(((R)-3-methyl-4-(oxetan-3-yl)piperazin-1-yl)methyl)-5-nitro-3,4-dihydro-2H-benzo[b][1,4]oxazin-7-yl)sulfonyl) benzamide] | 8.70 | 9.00 |
| C[C@@H]1CN(C[C@@H]2COc3cc(S(=O)(=O)NC(=O)c4ccc(N5CCN(CC6=C(c7ccc(Cl)cc7)CC(C)(C)CC6)CC5)cc4Oc4cnc5[nH]ccc5c4)cc([N+](=O)[O-])c3N2)CCO1 [Example 2-23, 2-((1H-pyrrolo[2,3-b]pyridin-5-yl)oxy)-4-(4-((4′-chloro-5,5-dimethyl-3,4,5,6-tetra-hydro-[1,1′-biphenyl]-2-yl)methyl)piperazin-1-yl)-N-(((R)-3-(((R)-2-methylmorpholino)methyl)-5-nitro-3,4-dihydro-2H-benzo[b][1,4]oxazin-7-yl)sulfonyl)benzamide] | 7.48 | 8.15 |
